The source of these data is patent US10143638B2, “Method of treating skin with ingenol mebutate” (LEO Laboratories Limited, priority 2009, dated 2018).

For assay [1], the system named is HAS2. Nature of the assay: HAS2 gene expression by dermal fibroblasts (qPCR). The class given is cell-based, human. Particulars: non-significant (p>0.05). From the text: (§1) A normal adult skin biopsy (6 mm) was obtained (n=1), with informed consent, from an individual attending the Oral Surgery Clinic, School of Dentistry, Wales College of Medicine, Cardiff. Following the application of a local anaesthetic, the dermal biopsy was collected and adult dermal fibroblast cultures established by single cell suspension technique, following enzymic degradation of the specimen. This technique has previously been reliably used to establish viable primary cultures of both oral and dermal fibroblasts in vitro (Cook et al, 2000; Stephens et al, 2001; 2003). Dermal fibroblasts were cultured in Fibroblast-Serum Containing Medium, containing Dulbecco's Modified Eagle's Medium (DMEM), supplemented with L-glutamine (2 mM), antibiotics (100 U/ml) penicillin G sodium, […] streptomycin sulphate and 0.25 μg/ml amphotericin B) and 10% foetal calf serum (all purchased from Invitrogen Ltd., Paisley, U.K.). Dermal fibroblast cultures were maintained at 37° C., in a 5% CO2/95% air atmosphere, with the culture medium being changed every 2-3 days. Dermal fibroblasts were used between) passage 7-17, for all experiments.
Following trypsinization, dermal fibroblasts were seeded in 24-well tissue culture plates, in PEP005-free, Fibroblast-Serum Containing Medium (1 ml), at a cell density of 2.5×10^4 cell/well. Dermal fibroblasts were maintained at 37° C., in a 5% CO2/95% air atmosphere, overnight. At this stage, the culture medium was replaced with Fibroblast-Serum Containing Medium (600 μl), containing 0 μg/ml, 0.01 μg/ml, 0.1 μg/ml, 1 μg/ml, 10 μg/ml or 100 μg/ml PEP005, +/−TGF-β1 (10 ng/ml) (three culture wells per PEP005 concentration). A control was also established, consisting of cells in Fibroblast-Serum Containing Medium, containing 1% DMSO. The dermal fibroblasts were maintained at 37° C., in a 5% CO2/95% air atmosphere, for 24 h or 72 h, prior to washing in PBS (3×1 ml) and Trizol® Reagent (250 μl) added to the cells, for 5 min at room temperature, to induce cell lysis. RNA was extracted by the phenol-chloroform method, as described above, while a cDNA library was generated via random hexamer RT, as described above. RNA (1 μg) was added to 100 µM random hexamer (1 μl), 5×RT Buffer (4 μl), 2.5 mM Deoxynucleoside Triphosphates (dNTPs, 5 μl), 2 μl DTT and Nuclease-Free Water, were added to the reaction (total volume, 20 μl). To denature the RNA, reaction tubes were placed in a GeneAmp PCR System 9700 (Applied Biosystems, Cheshire, U.K.) and heated for 5 min/95° C., prior to cooling to 4° C. Superscript (1 μl) and RNAsin® Ribonuclease Inhibitor (1 μl, Promega, Hampshire, U.K.) were added to each tube, and the tubes subjected to […] at 20° C. for 10 min, 42° C. for 1 h and 95° C. for 5 min, prior to storage at 4° C., until required. As a negative control, RT was also performed, with Nuclease-Free Water replacing the RNA sample.
qPCR was performed, as described above, with the probe and primers for HAS1, HAS2 and HAS3 (target genes) and the 18s ribosomal RNA (reference gene), designed and supplied by Applied Biosystems. PCR was performed in a final volume of 20 μl/sample, with each reaction mix consisting of cDNA (1 μl), target gene primers and probe (1 μl), Taqman® FAST Universal PCR Master Mix (10 μl, Applied Biosystems), and Nuclease-Free Water (8 μl). PCR amplification was performed, using an initial cycle of 95° C. for 1 s, followed by 40 cycles of 60° C. for 20 s. A cDNA-free control was also included. Again, the comparative CT method was used for relative quantification of gene expression. Each experiment was performed on three separate occasions.

The subject of assay [2] is dermal fibroblasts. Nature of the assay: Hyaluronan pericellular coat formation by dermal fibroblasts (particle exclusion assay). In kind it is cell-based, human.
Text: as §1
Following trypsinization, dermal fibroblasts were seeded in 53 mm bacteriological grade culture dishes (VWR International Ltd., Leicestershire, U.K.), in PEP005-free, Fibroblast-Serum Containing Medium (2 ml), at a density of 7×10^4 cell/dish. Dermal fibroblasts were maintained at 37° C., in a 5% CO2/95% air atmosphere, overnight, prior to washing in PBS (2×2 ml) and maintenance in serum-free, Fibroblast-Serum Containing Medium (2 ml), containing 0 μg/ml, 0.01 μg/ml, 0.1 μg/ml, 1 μg/ml, 10 μg/ml or 100 μg/ml PEP005, +/−TGF-β1 (10 ng/ml) (three culture dishes per PEP005 concentration). A control was also established, consisting of cells in serum-free, Fibroblast-Serum Containing Medium, containing 1% DMSO. The dermal fibroblasts were maintained at 37° C., in a 5% CO2/95% air atmosphere, for 24 h or 72 h. At 24 h and 72 h, the culture dishes were treated with formalized horse blood erythrocytes (TCS Biosciences Ltd., Buckinghamshire, U.K.). The formalized horse blood erythrocytes were washed in PBS, to remove sodium azide (3×20 ml) and centrifuged at 100 g/7 min, at 4° C. The erythrocyte cell pellet obtained was re-suspended in serum-free, Fibroblast-Serum Containing Medium, to a density of 1×10^8 cells/ml. Aliquots of the erythrocyte cell suspension (500 μl) were supplemented to each culture dish and the dishes agitated, prior to maintenance at 37° C., in a 5% CO2/95% air atmosphere, for 15 min. Zones of erythrocyte exclusion were visualized by light microscopy, using a Zeiss Axiovery 135 Inverted Microscope (Carl Zeiss Ltd., Hertfordshire, U.K.), with a Hamamatsun C5985 chilled CCD camera (Hamamatsu Photonics U.K. Ltd., Hertfordshire, U.K.) and using Openlab Software 3.0.8 (Improvision Ltd., Warwickshire, U.K.). Each experiment was performed on three separate occasions.

With `C/C=C(/C)C(=O)O[C@H]1C(C)=C[C@]23C(=O)[C@@H](C=C(CO)[C@@H](O)[C@]12O)[C@H]1[C@@H](C[C@H]3C)C1(C)C` [PEP005, ingenol-3-angelate], the HAS2 gene expression result in assay [1] (PEP005 0.01-100 μg/ml plus TGF-β1 (10 ng/ml), 72 h) is listed as “general down-regulation”; in assay [1] (PEP005 0.1-10 μg/ml, absence of TGF-β1, 72 h) it was “major up-regulation”. Further, the HAS2 expression entry in assay [1] (PEP005 0.1-10 μg/ml plus TGF-β1 (10 ng/ml), 24 h) is given as “up-regulation”; in assay [1] (PEP005 0.1-10 μg/ml, absence of TGF-β1, 24 h) it was “stimulatory effect”. Besides, the “changes in cellular morphology” value in assay [2] (PEP005 0.01-10 μg/ml plus TGF-β1 (10 ng/ml), 72 h) is “consistent with the presence of myofibroblasts”. In addition, the “hyaluronan pericellular coat formation” value was “even further enhanced” in assay [2] (PEP005 0.01-10 μg/ml plus TGF-β1 (10 ng/ml), 72 h, compared to PEP005-free controls); “little pericellular coat formation” in assay [2] (PEP005-treated cultures, absence of TGF-β1, 24 h); “major synergistic effect” in assay [2] (PEP005 plus TGF-β1 (10 ng/ml), 24 h, compared to untreated controls and to PEP005 without TGF-β1). Also, in assay [2] (PEP005 0.01-10 μg/ml, absence of TGF-β1, 72 h), the “morphological changes in fibroblasts” value was “consistent with the presence of myofibroblasts”. The “hyaluronan pericellular coat size” value in assay [2] (PEP005 0.01-10 μg/ml, absence of TGF-β1, 72 h, compared to PEP005-free controls) is “increase pericellular coat size”.
